# Measurements published in BindingDB's records for doi:10.1021/jm000130i (Duquesne University, 2000).
# Tests used:
# Dihydrofolate reductase = Dihydrofolate reductase (Lacticaseibacillus casei, UniProt P00381); test: Inhibitory concentration against Lactobacillus casei Dihydrofolate reductase
# [1] = molecular target: T1, Bifunctional dihydrofolate reductase-thymidylate synthase (Toxoplasma gondii, UniProt Q07422); test: Inhibitory concentration against Toxoplasma gondii Dihydrofolate reductase
# T1 sequence (Q07422 whole entry): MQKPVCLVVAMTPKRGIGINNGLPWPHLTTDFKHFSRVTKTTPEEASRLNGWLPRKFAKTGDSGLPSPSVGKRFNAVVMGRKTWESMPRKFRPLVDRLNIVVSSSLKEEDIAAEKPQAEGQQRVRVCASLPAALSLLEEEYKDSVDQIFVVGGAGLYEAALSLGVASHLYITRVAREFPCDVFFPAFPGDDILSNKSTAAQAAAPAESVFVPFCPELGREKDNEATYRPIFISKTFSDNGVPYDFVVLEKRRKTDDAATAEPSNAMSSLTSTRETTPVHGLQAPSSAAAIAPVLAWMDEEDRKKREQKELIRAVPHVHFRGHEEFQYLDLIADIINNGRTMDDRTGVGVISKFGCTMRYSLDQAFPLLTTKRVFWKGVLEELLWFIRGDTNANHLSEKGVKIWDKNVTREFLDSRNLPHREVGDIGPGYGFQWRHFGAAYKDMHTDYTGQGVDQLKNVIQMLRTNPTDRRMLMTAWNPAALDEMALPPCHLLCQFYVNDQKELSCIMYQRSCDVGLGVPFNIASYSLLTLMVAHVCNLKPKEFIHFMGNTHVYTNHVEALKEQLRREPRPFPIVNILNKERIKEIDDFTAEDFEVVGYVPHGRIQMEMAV
# Chain of Dihydrofolate reductase (P00381 whole entry): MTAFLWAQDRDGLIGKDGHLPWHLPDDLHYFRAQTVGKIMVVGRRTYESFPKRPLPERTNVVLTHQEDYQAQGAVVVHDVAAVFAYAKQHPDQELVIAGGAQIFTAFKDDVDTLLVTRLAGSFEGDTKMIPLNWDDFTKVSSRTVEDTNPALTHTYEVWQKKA
smiles,measurement,setting,value
C/C(=C\c1coc2nc(N)nc(N)c12)c1ccc(C(=O)N[C@@H](CCC(=O)O)C(=O)O)cc1,IC50,Dihydrofolate reductase,4.4 µM
same,IC50,[1],4.4 µM
